Data: patent EP4786454A1, “HETEROARYL DERIVATIVE AND USE THEREOF” (priority 2023, dated 2025)

Key:
[1] = Plasma protein binding rate, equilibrium dialysis (human plasma); type: in vitro ADME; details: dialysis 4 hours at 37 °C, read-out: Unbound PPB%
Procedure: (§1) The protein binding rates of the compounds in the plasma of CD-1 mice, Sprague-Dawley rats, beagle dogs, cynomolgus monkeys, and human were determined using equilibrium dialysis method.
(§2) Commercially available plasma, dual-layer dialysis membrane, and equilibrium dialysis device.
(§3) The dual-layer dialysis membrane was soaked in ultrapure water for about 1 hour, removed and then divided into two parts. It was then soaked in an ethanol:water (20:80, v:v) solution for 20 minutes or placed at 2 to 8 °C, and it was valid for 1 month. Before starting the assay, the dialysis membrane was rinsed twice with ultrapure water and then soaked in ultrapure water for another 20 minutes for later use.
(§4) On the day of assay, the frozen plasma of CD-1 mice, Sprague-Dawley rats, beagle dogs, cynomolgus monkeys, and human was thawed in running cold tap water. After the plasma was completely thawed, the plasma was centrifuged at 3220×g for 5 minutes, and the suspended substances and precipitates in it were removed. The pH of the plasma was determined. The plasma with a pH in the range of 7.4 ± 0.1 was directly used, or the plasma with a pH in the range of 7.4 ± 0.1 after an adjustment with 1% phosphoric acid or 1M sodium hydroxide was used.
(§5) Preparation process of plasma samples: 597 µL of blank plasma from each of the above five species was taken, respectively. 3 µL of a compound or warfarin working solution was added, and the mixture was mixed thoroughly to give a plasma sample with a compound concentration of 2 µM and a warfarin concentration of 2 µM (n=1). The concentration of the organic phase DMSO was 0.5%. The sample was thoroughly mixed before proceeding to the next step.
(§6) Preparation process of T0 samples: 50 µL of a plasma sample containing the compound and warfarin was transferred to a sample receiving plate (n=3), and 50 µL of blank PBS was immediately added. Then, 500 µL of stop solution was added to the T0 sample of the compound and warfarin, and the mixture was stored at 2 to 8 °C, waiting to be processed later together with other dialysis-processed samples.
(§7) Dialysis process of plasma samples: 100 µL of a compound (2 µM) and warfarin (2 µM) plasma sample was added to the donor of each dialysis well (n=3), and 100 µL of blank PBS was added to the corresponding receiver of the dialysis well. The dialysis plate was placed in a 5% CO2 incubator, and incubated at 37 °C with shaking at approximately 100 rpm for 4 hours.
(§8) After the dialysis was completed, 50 µL of dialysis-processed PBS sample and dialysis-processed plasma sample (n=3) were transferred to a new 96-well plate (sample receiving plate). The corresponding volume of the corresponding blank plasma or PBS was added to the sample to make the final volume of each sample well 100 µL, with a plasma to PBS volume ratio of 1:1. All the samples were analyzed by LC-MS/MS after protein precipitation.
(§9) The formulas for calculating the unbound fraction (%Unbound), bound fraction (%Bound) and recovery fraction (%Recovery) of a compound are as follows: %Unbound = 100 ×F / T %Bound = 100 - %Unbound %Recovery = 100 ×(F + T)/ T0 wherein F is the concentration of the compound at the receiver of dialysis; T is the concentration of the compound at the supply end of dialysis; and T0 is the concentration of the compound in the plasma at time zero.

[2] = Stability in liver microsomes (monkey); type: in vitro ADME, cynomolgus monkeys; details: c (cynomolgus monkey liver microsomes), 0.5 mg/mL, read-out: MMS Clint
Procedure: The purpose of this study was to evaluate the phase I metabolic stability of the assay sample in liver microsomes from CD-1 mice, Sprague-Dawley (SD) rats, beagle dogs, cynomolgus monkeys, and human.
The animal and human liver microsomes used in this assay system were purchased from Xenotech, Corning, or other qualified suppliers.
Preparation of buffer: 73.21 g of potassium phosphate dibasic trihydrate and 10.78 g of potassium dihydrogen phosphate were dissolved in 4000 mL of ultrapure water. The pH of the solution was adjusted to the range of 7.40 ± 0.10 using 10.0% phosphoric acid or 1.00 M potassium hydroxide. Its final concentration was 100 mM.
Preparation of working solutions: An assay sample powder was prepared into a 10.0 mM stock solution with DMSO, and then further diluted with a suitable organic solvent. The control compounds testosterone, diclofenac, and propafenone were prepared into 10.0 mM stock solutions using DMSO, and then further diluted with a suitable organic solvent.
Preparation of liver microsome solution: Microsomes of various species were diluted with 100 mM potassium phosphate buffer to a working solution of 0.56 mg/mL. The final concentration of microsomes in the reaction system was 0.500 mg/mL. Detailed preparation procedures were described in the experimental records.
Preparation of reduced nicotinamide adenine dinucleotide phosphate (NADPH) solution: An appropriate amount of reduced nicotinamide adenine dinucleotide phosphate was dissolved in magnesium chloride solution, and the mixture was shaken to mix well. The final concentrations in the reaction system were 1.00 mM NADPH and 1.00 mM magnesium chloride, respectively. Detailed preparation procedures were described in the experimental records.
Preparation of stop solution: The stop solution was prepared using acetonitrile containing internal standards (tolbutamide and labetalol). The prepared stop solution was stored at 2.0 to 8.0 °C in a refrigerator. Detailed preparation procedures were described in the experimental records. […]

[3] = Plasma protein binding rate, equilibrium dialysis (dog plasma); type: in vitro ADME, beagle dogs; details: d (beagle dog plasma), dialysis 4 hours at 37 °C, read-out: Unbound PPB%
Procedure: as §1, §2, §3, §4, §5, §6, §7, §8, §9

Row | SMILES | fraction unbound at 4 h, 2 µM [1] | CLint scaled at 1 µM [2] [mL/min/kg] | fraction unbound at 4 h, 2 µM [3]
1 | CC(C)(C)CC(=O)Nc1nc2c(F)cc(C#N)cn2c1C12CC(C1)C2 [Compound 5] | 0.231 | 15.3 | 0.278
2 | CC(C)(C)CC(=O)Nc1nc2c(F)cc(C#N)cn2c1C1=CCCC1 [Compound 3] | 0.109 | 129 | 0.203
3 | CC(C)(C)CC(=O)Nc1nc2c(F)cc(C#N)cn2c1-c1ccc(OC(F)(F)F)cc1 [Compound 1] | 0.051 | 130 | 0.046
